Assay results from US20080113101A1, “ORGANIC-ELECTROLUMINESCENCE-MATERIAL-CONTAINING SOLUTION, METHOD FOR FORMING THIN FILM OF ORGANIC ELECTROLUMINESCENCE MATERIAL, THIN FILM OF ORGANIC ELECTROLUMINESCENCE MATERIAL AND ORGANIC ELECTROLUMINESCENCE DEVICE” (Idemitsu Kosan Co., Ltd., priority 2006, published 2008).

Assays:
Format in all cases: physicochemical
[1] = Solubility Evaluation 2: solubility of dopant compounds in toluene
Procedure: (§1) A hundred mg of each compound was placed in a sample pot and the toluene as the solvent was added until the compound was dissolved. The solubility in the toluene was obtained from an amount of the added toluene.

[2] = Solubility Evaluation 1: solubility of host compounds in toluene; details: for Solubility (%): in toluene, 100 mg compound, toluene added until dissolved
Procedure: Solubility Evaluation 1 was conducted by the following method.
as §1

[3] = Ink solubility, insoluble matter visually observed; details: H10: ink of Example 28 with Compound H10 instead of H4
Procedure: (§2) Specifically, samples of a host compound and a dopant compound were blended in a weight ratio of 20:1 in a sample pot, to which a solvent and a viscosity control agent were added.
(§3) Table 5 and Table 6 each show a type of solvent, solid content (wt %), solubility (o: no insoluble matter visually observed, x: insoluble matter visually observed), viscosity and a solution condition after a week.

[4] = Ink solution condition after a week (pot life); details: H10: ink of Example 28 with Compound H10 instead of H4
Procedure: as §2, §3

Compound | Solubility (%) ([1]; Table 2) | Solubility (%) ([1]; Table 3) | further results
CCC(C)c1ccc(N(c2ccc(/C=C/c3ccc(/C=C/c4ccc(N(c5ccc(C(C)CC)cc5)c5ccc(C(C)CC)cc5)cc4)cc3)cc2)c2ccc(C(C)CC)cc2)cc1 (centres unmarked) [Compound D1] | – | – | Solubility (%) ([1]; Table 4): 0.5%
c1ccc(N(c2ccccc2)c2c3ccccc3c(N(c3ccccc3)c3ccccc3)c3ccccc23)cc1 [Compound D3, reference compound] | – | – | Solubility (%) ([1]; Table 4): <0.1%
Cc1ccc(N(c2ccc(C)cc2)c2ccc(/C=C/c3ccc(/C=C/c4ccc(N(c5ccc(C)cc5)c5ccc(C)cc5)cc4)cc3)cc2)cc1 [Compound D4, reference compound] | – | – | Solubility (%) ([1]; Table 4): <0.1%
c1ccc2cc(-c3ccc(-c4c5ccccc5c(-c5ccc(-c6cccc7ccccc67)cc5)c5ccccc45)cc3)ccc2c1 [Compound H1] | – | – | Solubility (%) [2]: 2.0%
c1cc(-c2ccc(-c3cccc4ccccc34)cc2)cc(-c2c3ccccc3c(-c3ccc(-c4cccc5ccccc45)cc3)c3ccccc23)c1 [Compound H2] | – | – | Solubility (%) [2]: 2.0%
c1ccc2cc(-c3ccc4cc(-c5c6ccccc6c(-c6ccc(-c7cccc8ccccc78)cc6)c6ccccc56)ccc4c3)ccc2c1 [Compound H3] | – | – | Solubility (%) [2]: 2.0%
c1ccc2cc(-c3c4ccccc4c(-c4ccc(-c5cccc6ccccc56)cc4)c4ccccc34)ccc2c1 [Compound H4] | – | – | Solubility (%) [2]: 5.0%
c1ccc(-c2cc(-c3ccc4ccccc4c3)cc(-c3c4ccccc4c(-c4ccc5ccccc5c4)c4ccccc34)c2)cc1 [Compound H5] | – | – | Solubility (%) [2]: 5.0%
c1cc(-c2ccc3ccccc3c2)cc(-c2c3ccccc3c(-c3cccc4ccccc34)c3ccccc23)c1 [Compound H6] | – | – | Solubility (%) [2]: 0.25%
c1cc(-c2ccc3ccccc3c2)cc(-c2c3ccccc3c(-c3ccc4cc(-c5ccc6ccccc6c5)ccc4c3)c3ccccc23)c1 [Compound H7] | – | – | Solubility (%) [2]: 0.25%
c1ccc(-c2ccc(-c3c4ccccc4c(-c4ccccc4)c4ccccc34)cc2)cc1 [Compound H8] | – | – | Solubility (%) [2]: 0.2%
c1ccc(-c2ccc(-c3ccccc3-c3c4ccccc4c(-c4c5ccccc5c(-c5ccccc5-c5ccc(-c6ccccc6)cc5)c5ccccc45)c4ccccc34)cc2)cc1 [Compound H9] | – | – | solubility in the toluene (in words) ([2]; host compounds): solubility capable of performing the thickness control of the films; Solubility (%) [2]: 1.4%
c1ccc(-c2ccccc2-c2ccc3c(-c4ccccc4)c4ccccc4c(-c4ccccc4)c3c2)cc1 [Compound H10] | – | – | insoluble matter in the ink (in words) [3]: no solid matters left undissolved; precipitation within a week / pot life (in words) [4]: precipitation was not observed after a week; solubility in toluene ([2]; host compounds): 5 wt %
CC(C)c1ccc2c(N(c3ccc(-c4ccccc4)cc3)c3ccc4ccccc4c3)c3cc(CC4CCCCC4)ccc3c(N(c3ccc(-c4ccccc4)cc3)c3ccc4ccccc4c3)c2c1 [EM136] | 0.5 | – | –
CCC(C)c1ccc(N(c2ccccc2)c2c3ccc(C(C)C)cc3c(N(c3ccccc3)c3ccc(C(C)CC)cc3)c3ccc(CC(C)(C)C)cc23)cc1 (centres unmarked) [EM137] | 1 | – | –
Cc1ccc(N(c2ccc(C)cc2)c2c3ccc(C4CCCCC4)cc3c(N(c3ccc(C)cc3)c3ccc(C)cc3)c3ccc(C(C)C)cc23)cc1 [EM138] | 0.5 | – | –
Cc1ccc(N(c2ccc(C)cc2)c2c3ccccc3c(N(c3ccc(C)cc3)c3ccc(C)cc3)c3cc(C(C)(C)C)ccc23)cc1 [EM139] | 0.5 | – | –
Cc1ccc(N(c2ccc(C(C)(C)C)cc2)c2c3ccccc3c(N(c3ccc(C)cc3)c3ccc(C(C)(C)C)cc3)c3cc(C(C)C)ccc23)cc1 [EM140] | 0.5 | – | –
Cc1ccc(N(c2ccc(C(C)C)cc2)c2c3ccccc3c(N(c3ccc(C)cc3)c3ccc(C(C)C)cc3)c3cc(C(C)(C)C)ccc23)cc1 [EM141] | 0.5 | – | –
CC(C)c1ccc(N(c2ccccc2)c2c3ccc(C(C)(C)C)cc3c(N(c3ccccc3)c3ccc(C(C)C)cc3)c3ccc(C(C)(C)C)cc23)cc1 [EM142] | 0.5 | – | –
Cc1ccc(N(c2ccc(C)cc2)c2c3ccc(C(C)(C)C)cc3c(N(c3ccc(C)cc3)c3ccc(C)cc3)c3ccc(C(C)(C)C)cc23)cc1 [EM143] | 0.5 | – | –
Cc1ccc(N(c2ccc(C(C)C)cc2)c2c3ccc(C(C)(C)C)cc3c(N(c3ccc(C)cc3)c3ccc(C(C)C)cc3)c3ccc(C(C)(C)C)cc23)cc1 [EM144] | 0.5 | – | –
Cc1ccc(N(c2ccc(C)c(C)c2)c2c3ccc(C(C)(C)C)cc3c(N(c3ccc(C)c(C)c3)c3ccc(C)c(C)c3)c3ccc(C(C)(C)C)cc23)cc1C [EM145] | 0.5 | – | –
Cc1cccc(N(c2cccc(C(C)C)c2)c2c3ccc(C(C)(C)C)cc3c(N(c3cccc(C)c3)c3cccc(C(C)C)c3)c3ccc(C(C)(C)C)cc23)c1 [EM146] | 0.5 | – | –
Cc1cccc(N(c2ccc(C)c(C)c2)c2c3ccc(C(C)(C)C)cc3c(N(c3cccc(C)c3)c3ccc(C)c(C)c3)c3ccc(C(C)(C)C)cc23)c1 [EM147] | 1 | – | –

Compound | Solubility (%) ([1]; Table 2) | Solubility (%) ([1]; Table 3) | further results
CC(C)(C)c1ccc2c(N(c3ccc4ccccc4c3)c3ccc4ccccc4c3)c3cc(C(C)(C)C)ccc3c(N(c3ccc4ccccc4c3)c3ccc4ccccc4c3)c2c1 [EM148] | 0.5 | – | –
Cc1cccc(N(c2cccc(C)c2)c2c3ccc(C(C)C)cc3c(N(c3cccc(C)c3)c3cccc(C)c3)c3ccc(C(C)C)cc23)c1 [EM149] | 0.5 | – | –
c1ccc(N(c2ccc3ccccc3c2)c2c3ccccc3c(N(c3ccccc3)c3ccc4ccccc4c3)c3cc(C4CCCCC4)ccc23)cc1 [EM174] | 0.5 | – | –
Cc1cccc(N(c2cccc(C)c2)c2c3ccccc3c(N(c3cccc(C)c3)c3cccc(C)c3)c3cc(C4CC5CCC4C5)ccc23)c1 (centres unmarked) [EM175] | 0.5 | – | Solubility (%) ([1]; Table 4): 0.5%
Cc1ccc(N(c2ccc(C(C)C)cc2)c2c3ccccc3c(N(c3ccc(C)cc3)c3ccc(C(C)C)cc3)c3cc(C45CC6CC(CC(C6)C4)C5)ccc23)cc1 [EM176] | 0.5 | – | Solubility (%) ([1]; Table 4): 0.5%
CC(C)c1ccc(N(c2ccccc2)c2c3ccccc3c(N(c3ccccc3)c3ccc(C(C)C)cc3)c3cc(C45CC6CC(CC(C6)C4)C5)ccc23)cc1 [EM177] | 0.5 | – | Solubility (%) ([1]; Table 4): 0.5%
CCC(C)c1ccc(N(c2ccc(-c3ccccc3)cc2)c2ccc(N(c3ccc(-c4ccccc4)cc3)c3ccc(C(C)CC)cc3)c3ccccc23)cc1 (centres unmarked) [EM191] | – | 1 | –
c1ccc(-c2cc(N(c3ccc(C4CCCCC4)cc3)c3cc4ccccc4c4ccccc34)c3cc(-c4ccccc4)cc(N(c4ccc(C5CCCCC5)cc4)c4cc5ccccc5c5ccccc45)c3c2)cc1 [EM192] | – | 1 | –
Cc1ccc(N(c2ccc(C(C)C)cc2)c2ccc3ccc4c(N(c5ccc(C)cc5)c5ccc(C(C)C)cc5)ccc5ccc2c3c54)cc1 [EM193] | – | 0.5 | –
CC(C)c1ccc(N(c2ccc3ccccc3c2)c2ccc3ccc4c(N(c5ccc(C(C)C)cc5)c5ccc6ccccc6c5)ccc5ccc2c3c54)cc1 [EM194] | – | 1 | –
Cc1cc(C)cc(N(c2ccc(C(C)C)cc2)c2ccc3ccc4c(N(c5ccc(C(C)C)cc5)c5cc(C)cc(C)c5)ccc5ccc2c3c54)c1 [EM195] | – | 0.5 | –
CC(C)c1ccc(N(c2ccc(C(C)C)cc2)c2ccc3ccc4c(N(c5ccc(C(C)C)cc5)c5ccc(C(C)C)cc5)ccc5ccc2c3c54)cc1 [EM196] | – | 1 | –
CC(C)c1ccc(N(c2ccc(C(C)(C)C)cc2)c2ccc3ccc4c(N(c5ccc(C(C)C)cc5)c5ccc(C(C)(C)C)cc5)ccc5ccc2c3c54)cc1 [EM197] | – | 1 | –
CC(C)c1ccc(N(c2ccc(C(C)C)cc2)c2c3ccccc3c(N(c3ccc(C(C)C)cc3)c3ccc(C(C)C)cc3)c3ccccc23)cc1 [EM204] | – | 0.5 | –
CC(C)c1ccc(N(c2ccc(C(C)(C)C)cc2)c2c3ccccc3c(N(c3ccc(C(C)C)cc3)c3ccc(C(C)(C)C)cc3)c3ccccc23)cc1 [EM205] | – | 0.5 | –
CCc1ccc(N(c2ccc(C(C)CC)cc2)c2c3ccccc3c(-c3c4ccccc4c(N(c4ccc(CC)cc4)c4ccc(C(C)CC)cc4)c4ccccc34)c3ccccc23)cc1 (centres unmarked) [EM206] | – | 0.5 | –
CC(C)c1ccc(N(c2cccc(-c3ccccc3)c2)c2c3ccccc3c(-c3c4ccccc4c(N(c4ccc(C(C)C)cc4)c4cccc(-c5ccccc5)c4)c4ccccc34)c3ccccc23)cc1 [EM207] | – | 0.5 | –
Cc1cc(C)cc(N(c2ccc(C(C)C)cc2)c2c3ccccc3c(-c3c4ccccc4c(N(c4ccc(C(C)C)cc4)c4cc(C)cc(C)c4)c4ccccc34)c3ccccc23)c1 [EM208] | – | 1 | –
Cc1ccc(N(c2ccc(C(C)C)cc2)c2c3ccccc3c(-c3c4ccccc4c(N(c4ccc(C)cc4)c4ccc(C(C)C)cc4)c4cc(C(C)(C)C)ccc34)c3ccc(C(C)(C)C)cc23)cc1 [EM209] | – | 0.5 | –
Cc1ccc(N(c2ccc(C(C)C)cc2)c2c3ccccc3c(N(c3ccc(C)cc3)c3ccc(C(C)C)cc3)c3c2ccc2ccccc23)cc1 [EM210] | – | 1 | –
Cc1ccc(N(c2ccc(C(C)C)cc2)c2c3ccccc3c(N(c3ccc(C(C)C)cc3)c3ccc(C(C)C)cc3)c3c2ccc2ccccc23)cc1 [EM211] | – | 1 | –
CC(C)c1ccc(N(c2ccc(C(C)C)cc2)c2cc3c4ccccc4c(N(c4ccc(C(C)C)cc4)c4ccc(C(C)C)cc4)cc3c3ccccc23)cc1 [EM212] | – | 1 | –
Cc1ccc(N(c2ccc(C(C)C)cc2)c2cc3c4ccccc4c(N(c4ccc(C)cc4)c4ccc(C(C)C)cc4)cc3c3ccccc23)cc1 [EM213] | – | 0.5 | –
CC(C)c1ccc(N(c2cccc(C(C)(C)C)c2)c2cc3c4ccccc4c(N(c4ccc(C(C)C)cc4)c4cccc(C(C)(C)C)c4)cc3c3ccccc23)cc1 [EM214] | – | 1 | –
Cc1cc(C)cc(N(c2ccc(C(C)C)cc2)c2cc3c4ccccc4c(N(c4ccc(C(C)C)cc4)c4cc(C)cc(C)c4)cc3c3ccccc23)c1 [EM215] | – | 1 | –
